Test results from US9211305B2, “Pharmaceutical compositions with glycosaminoglycans and use thereof in the treatment of chronic ulcers” (LABORATORIOS FARMACEUTICOS ROVI S.A., priority 2008, dated 2015).
“And” between values parts separate entries of the source, which are not always exact repeats. Equal entries are not always repeated. “Also recorded” adds a separate entry of the source.

Legend:
diabetic wistar rat [1] = test: Example 3: percentage of ulcer healing in diabetic rats, SC route; assay type: in vivo; conditions: 0.22 mg/rat SC, one rat
Protocol: To perform the present embodiment, doses of 45 mg/kg of streptozocin (STZ) were administered by intramuscular route to make a batch of 10 rats diabetic (Andrades Ja et al. Engineering, expression, and renaturation of a collagen-targeted human bFGF fusion protein. Growth Factors. 2001; 18(4):261-75).
(§1) Male wistar rats with an average weight of 250 g per rat were used, to which a dose of 11.25 mg STZ per rat was administered by means of the intramuscular administration of 100 μL in the left paw of each rat.
(§2) Diabetes was induced in 6 of all the rats and 4 of them were left as a non-diabetic control, to test the result of the healing of chronic ulcers not caused by diabetes.
(§3) Sweetened water (350 mg/dL) was administered to the rats for three days and glucose measurements were performed with a glucometer every day to verify that the rats were indeed diabetized. For this reason, before the administration and at time 4 days after the administration of streptozocin, a drop of blood was extracted from the rat tail vein for the subsequent quantification of glycemia and see whether they were diabetic before starting the ulceration assay.
Once the rats are ready, 2 ulcers with a diameter of 1 cm each were made on them using a scalpel. […]

[2] = tested on: C57BL/KsJ-db/db diabetic mouse; test: Example 4: wound healing in genetically diabetic mouse, topical route; assay type: in vivo; conditions: topical 1000 IU/kg; for histopathological Grade / histopathological Score: 14 days, sacrifice day 15
Protocol: In this case, topical formulations were prepared for the direct administration on the ulcers, the carriers of which formulations are formed by Carbopol, Phenonip®, Span 80, Glycerol and water.
The ulceration and measurement of the area were performed as detailed in the subcutaneous administration assays. On the day after the incision and for a total of 14 days, the assigned treatments, 0.15 ml/animal by topical route in the back of the animal, above the wound, were administered to the animals.
The follow-up of the animals was performed up to a period of 14 days (average time necessary for the healing of the wounds in this animal model). The assessment was performed by means of digital photography of the wound and subsequent image analysis.
The animals were sacrificed on the day after the last administration (day 15) and the area where the wound was made was extracted. The rear portion of the area containing the wound was stored in formol for its histological processing (hematoxylin-eosin staining).
The results were based on the score given by the method of Greenhalgh et al. (1990). Each block was given a histological score from 1 to 15, where 1 means uncured wound and 15 means completely epithelialized wound. The score is based on the degree of cell invasion, the formation of granulation tissue, vascularization and epithelialization: […]

factor Xa = test: Anti-factor Xa activity; assay type: biochemical
diabetic wistar rat [3] = test: Example 1: ulcer area reduction in streptozocin-diabetized rats, subcutaneous route; assay type: in vivo
Protocol: To perform the present example, doses of 45 mg/kg of streptozocin (STZ) were administered by intramuscular route to make a batch of 8 rats diabetic (Andrades Ja et al. Engineering, expression, and renaturation of a collagen-targeted human bFGF fusion protein. Growth Factors. 2001; 18(4):261-75).
as §1
as §3, with “administered to all the rats” for “administered to the rats”, “glycemia and to see whether” for “glycemia and see whether”
Once the rats were diabetized, 4 ulcers with a diameter of 1 cm each were made on them using a scalpel. An anesthesia/analgesia protocol with Ketamine/xylazine was followed according to the recommendations of the book: “Handbook of laboratory animal management and welfare”:
The ulcers were treated with water and cleaned for 9 days after the ulceration.
The administrations of bemiparin were performed by means of a bemiparin solution by subcutaneous route (100 μL) for the treatment of the ulcers.
The diameter of the ulcer was quantified by means of tracing the ulcer onto a transparency to see the progress of the healing.

non-diabetic rats = test: Example 3: percentage of ulcer healing in non-diabetic rats, SC route; assay type: in vivo, Wistar rat; conditions: for percentage of healing of day 9 with respect to day 1, Average: Group 1, non-diabetic, 217 IU/rat SC
Protocol: as §2
Once the rats are ready, 2 ulcers with a diameter of 1 cm each were made on them using a scalpel. An anesthesia/analgesia protocol with ketamine/xylazine was followed according to the recommendations of the book: “Handbook of laboratory animal management and welfare”:
The ulcers were treated with water and cleaned for 9 days after the ulceration. A corresponding solution was administered to each group by SC route (100 μL) for the treatment of the ulcers. The diameter of the ulcer was quantified by means of tracing the ulcer onto a transparency to see the progress of the healing.

[4] = tested on: C57BL/KS.Cg-m Lepr^db+/+m mouse; test: Example 5: wound healing in non-diabetic mouse, subcutaneous route; assay type: in vivo
Protocol: The C57BL/KS.Cg-m Lepr^db+/+m mouse is the non-diabetic analog of the mouse used in the previous example.
On the first day of the assay, the animals were anesthetized (ketamine+xylazine, 100+10 mg/kg, i.m.). The back of the animal was shaved, the area was cleaned with disinfectant and the location of the wound was marked by means of a template to make its position the same in all the animals.
The wound was made by means of a circular incision with a diameter of approximately 1.5 cm, the skin of the mid-dorsal area being removed. A semipermeable dressing was subsequently placed on the wound. 1 mL/animal of physiological serum was administered by i.p. route after the intervention.
The wound area was calculated as the percentage of reduction thereof to evaluate the degree of curing thereof, by means of the standardized formula: […]
The measurement performed immediately after the intervention or incision was used as the baseline area. On the following day and for a total of 14 days, the assigned treatments were administered to the animals.
On the following day and for a total of 14 days, 10 ml/kg were administered to the animals by subcutaneous route in the back of the animal, avoiding the area of the wound.
The follow-up of the animals was performed up to a period of 21 days. The assessment was performed by means of digital photography of the wound and subsequent image analysis.
The animals were sacrificed on day 21 of the study and the area of the skin where the wound was caused was stored in formol to perform a histopathological evaluation (hematoxylin-eosin staining).
Each section was given a histological score in the grade 1 to grade V range, where I means uncured wound and V means completely epithelialized wound. The score is based on the degree of cell invasion, the formation of granulation tissue, vascularization and epithelialization.

[5] = in vivo; cited from earlier work
[6] = subcutaneous 14 days, sacrifice day 21, doses as in the 23rd table

Compound	percentage of healing of day 9 with respect to day 1, Average (diabetic wistar rat [1]) [%]	percentage of healing of day 9 with respect to day 1 (diabetic wistar rat [1]; single ulcers)	histopathological Grade [2]	histopathological Score [2]	anti-Xa/anti-IIa ratio (factor Xa)	percentage of area reduction of day 9 with respect to day 1, Average (diabetic wistar rat [3]; 108 IU rat, subcutaneous, ulcer E excluded) [%]	macroscopic healing process (diabetic wistar rat [3]; 217 IU rat compared with 108 IU rat)	percentage of area reduction of day 9 with respect to day 1, Average (diabetic wistar rat [3]; 217 IU rat, subcutaneous) [%]	percentage of area reduction of day 9 with respect to day 1 (diabetic wistar rat [3]; single ulcers, 217 IU rat, subcutaneous)	macroscopic healing process (non-diabetic rats; Group 1 (217 IU/rat) compared with the rest of groups)	percentage of healing of day 9 with respect to day 1, Average (non-diabetic rats) [%]	percentage of healing of day 9 with respect to day 1, Average (non-diabetic rats; listed as bemiparin) [%]	area reduction ([2]; end of the treatment (14 days))	healing rate with respect to the control ([4]; subcutaneous 1000 IU Xa/kg)	histopathological Grade [4, 6]	histopathological Score [4, 6]	Plasma Half-Life [5] [h]	Plasma Half-Life Range [5] [h]
CO[C@H]1O[C@H](COS(=O)(=O)O)[C@@H](O[C@@H]2O[C@@H](C(=O)O)[C@@H](O[C@H]3O[C@H](COS(=O)(=O)O)[C@@H](O[C@@H]4O[C@H](C(=O)O)[C@@H](O[C@H]5O[C@H](COS(=O)(=O)O)[C@@H](O)[C@H](O)[C@H]5NS(=O)(=O)O)[C@H](O)[C@H]4O)[C@H](OS(=O)(=O)O)[C@H]3NS(=O)(=O)O)[C@H](O)[C@H]2OS(=O)(=O)O)[C@H](O)[C@H]1NS(=O)(=O)O [Fondaparinux]	50.22	A 50.99%; also recorded: B 49.55%	III (7-9 Moderately thick granulation tissue. It can vary from being dominated by inflammatory cells to greater presence of fibroblasts and collagen deposition, extensive neovascularization, minimum to moderate epithelial migration.)	8.6														
Bemiparin			III (7-9 Moderately thick granulation tissue. It can vary from being dominated by inflammatory cells to greater presence of fibroblasts and collagen deposition, extensive neovascularization, minimum to moderate epithelial migration.)	8.7	greater than 8	24.39 ± 7.47	macroscopically much better	27.35 ± 7.25	26.2% and 20.14% and 25.64% and 37.43%	macroscopically much better	71.82	71.82	greater than 60%	does not improve the healing rate	III (7-9 Moderately thick granulation tissue. It can vary from being dominated by inflammatory cells to greater presence of fibroblasts and collagen deposition, extensive neovascularization, minimum to moderate epithelial migration.)	8	5.3	5.2 to 5.4
